The values that follow come from US20100028414A1, “COMBINATION OF TYROSINE KINASE INHIBITOR AND HER-2/NEU FOR CANCER THERAPY” (priority 2004, published 2010).

In experiment [1] the test system is BT474 human breast cancer cells. The experiment can be described thus: In vitro growth inhibition assay ([3H] thymidine incorporation), BT474. It counts as cell-based. As to conditions: 0.01 μM Lapatinib, 50 μg/ml pAb, 72 h, FIG. 11A. Here is the method:
(§1) The antiproliferative effect of vaccine induced anti HER2 polyclonal antibodies (pAb) in combination with Lapatinib was evaluted on human breast cancer cells overexpressing the HER2/neu molecule (BT474 and SKBR3 cells) using the [^3H] thymidine incorporation method. Briefly, 10e4 cells were seeded in 200 μl, in triplicate, in 96-w plates and incubated for 72 h at 37° C. in • 1) medium; • 2) medium containing Lapatinib alone (0.01 μM); • 3) medium containing pAb alone (50 μg/ml); • 4) medium containing pre-immune pAb (TA2021) (50 μg/ml); • 5) a combination of (2) Lapatinib (0.01 μM ) and (3) pAb (50 μg/ml); or • 6) a combination of (2) Lapatinib (0.01 μM ) and (4) pre-immune pAb (TA2021) (50 μg/ml).
(§2) 1 μCi of [^3H] Thymidine (5 Ci/mmol; Amersham) was added for an additional 24 h after which cells were harvested by trypsinisation onto filter plates and the incorporated radioactivity was counted in a beta counter. Results were expressed in cpm and the percentage of growth inhibition was calculated referring to the medium.

Experiment [2] concerns SKBR3 human breast cancer cells. Description: In vitro growth inhibition assay ([3H] thymidine incorporation), SKBR3. Format: cell-based. The note with it: 0.01 μM Lapatinib, 50 μg/ml pAb, 72 h, FIG. 11B. Here is the method:
as §1, §2

For experiment [3], the system named is BT474 cells. The experiment can be described thus: Apoptosis by annexin V staining and flow cytometry, BT474. It counts as cell-based, human. The note with it: lapatinib 0.1 μM, pAb 100 μg/ml, trastuzumab 10 μg/ml, 72 hr, FIG. 12A top.
Description: After harvesting the cells with trypsin-EDTA, 5000 cells in 50 μl were sampled on 96-well microplates. The cells were stained directly in the microplate with Annexin V-PE and Nexin 7-AAD in 1× Nexin Buffer in a 200 μl final reaction volume. After incubating for 20 minutes at room temperature, the reaction samples were ready to be acquired in the Guava PCA-96-system (Guava Technology, Inc., Hayward, Calif. USA).
7-AAD binds to cellular nuclear material after cellular membranes break down in late apoptosis. Annexin-V staining indicates early apoptotic changes that precede the loss of cellular membrane integrity. Use of Annexin-V in conjunction with 7-amino-actinomycin D (7-AAD) thus can identify both early and late apoptotic cells.
Flow cytometry results were graphed as dot plot results (not shown) with annexin V on the X-axis and 7-AAD on the Y-axis. Low annexin V and low 7-AAD represented viable cells; low annexin V and high 7-AAD indicated nuclear debris; cells with high annexin V staining indicated apoptotic cells.
For experiment [4], the system named is survivin. Description: Western blot of steady state survivin protein, BT474 cells. Format: cell-based, human. The note with it: lapatinib 0.1 μM, pAb 100 μg/ml, trastuzumab 10 μg/ml, 72 hr, FIG. 12A bottom. Here is the method: (§3) To assess the levels of various proteins in cells, whole cell extracts were prepared by scraping cells off petri dishes, washing the cell pellet twice in phosphate buffered saline (PBS), and then resuspending the pellet in two-packed-cell volumes of RIPA buffer(150 mM NaCl, 50 mM Tris-HCl, pH 7.5, 0.25% (w/v) deoxycholate, 1% NP-40, 5 mM sodium orthovanadate, 2 mM sodium fluoride, and a protease inhibitor cocktail). Protein concentrations were determined using a modification of the Bradford method (Bio-Rad Laboratory). […] The immunoprecipitates were separated by 4-15% gradient SDS-polyacrylamide […] gel electrophoresis (SDS-PAGE), and ErbB receptors were detected by Western Blot with anti-ErbB receptor antibodies.
(§4) Steady state levels of Survivin, total ErbB2, phosphorylated ErbB2 (pErbB2 or pTyr), total Erk1/2 , activated Erk1/2 (p-Erk), total pErbB3, activated pErbB3 (pErbB3), total AKT protein and activated Akt (p-Akt) protein were assessed by Western blot. Levels of pErbB2 were assessed using an antibody that bound to multiple tyrosine-phosphorylated forms of ErbB2 (i.e., the antibody was not phosphorylation-site specific). […]
(§5) For Western blot, equal amounts of proteins were resolved by either 7.5% or 4-15% gradient SDS polyacrylamide gel electrophoresis under reducing conditions. […] Efficiency and equal loading of proteins was evaluated by Ponceau S staining. […]

Experiment [5] concerns the target T1, phospho-ErbB2 (p-ErbB2) (Homo sapiens, UniProt P04626).
T1 construct: whole cell extracts were prepared by scraping cells off petri dishes; host or cells: BT474
Description: Western blot of activated phospho-ErbB2, BT474 cells. Format: cell-based. As to conditions: lapatinib 0.1 μM, pAb 100 μg/ml, trastuzumab 10 μg/ml, 72 hr, FIG. 12A bottom. The method, then: as §3, §4, §5

Experiment [6] deals with T2, total ErbB2 (Homo sapiens, UniProt P04626).
T2 construct: whole cell extracts were prepared by scraping cells off petri dishes; host or cells: BT474
T2 sequence (P04626 23-1255): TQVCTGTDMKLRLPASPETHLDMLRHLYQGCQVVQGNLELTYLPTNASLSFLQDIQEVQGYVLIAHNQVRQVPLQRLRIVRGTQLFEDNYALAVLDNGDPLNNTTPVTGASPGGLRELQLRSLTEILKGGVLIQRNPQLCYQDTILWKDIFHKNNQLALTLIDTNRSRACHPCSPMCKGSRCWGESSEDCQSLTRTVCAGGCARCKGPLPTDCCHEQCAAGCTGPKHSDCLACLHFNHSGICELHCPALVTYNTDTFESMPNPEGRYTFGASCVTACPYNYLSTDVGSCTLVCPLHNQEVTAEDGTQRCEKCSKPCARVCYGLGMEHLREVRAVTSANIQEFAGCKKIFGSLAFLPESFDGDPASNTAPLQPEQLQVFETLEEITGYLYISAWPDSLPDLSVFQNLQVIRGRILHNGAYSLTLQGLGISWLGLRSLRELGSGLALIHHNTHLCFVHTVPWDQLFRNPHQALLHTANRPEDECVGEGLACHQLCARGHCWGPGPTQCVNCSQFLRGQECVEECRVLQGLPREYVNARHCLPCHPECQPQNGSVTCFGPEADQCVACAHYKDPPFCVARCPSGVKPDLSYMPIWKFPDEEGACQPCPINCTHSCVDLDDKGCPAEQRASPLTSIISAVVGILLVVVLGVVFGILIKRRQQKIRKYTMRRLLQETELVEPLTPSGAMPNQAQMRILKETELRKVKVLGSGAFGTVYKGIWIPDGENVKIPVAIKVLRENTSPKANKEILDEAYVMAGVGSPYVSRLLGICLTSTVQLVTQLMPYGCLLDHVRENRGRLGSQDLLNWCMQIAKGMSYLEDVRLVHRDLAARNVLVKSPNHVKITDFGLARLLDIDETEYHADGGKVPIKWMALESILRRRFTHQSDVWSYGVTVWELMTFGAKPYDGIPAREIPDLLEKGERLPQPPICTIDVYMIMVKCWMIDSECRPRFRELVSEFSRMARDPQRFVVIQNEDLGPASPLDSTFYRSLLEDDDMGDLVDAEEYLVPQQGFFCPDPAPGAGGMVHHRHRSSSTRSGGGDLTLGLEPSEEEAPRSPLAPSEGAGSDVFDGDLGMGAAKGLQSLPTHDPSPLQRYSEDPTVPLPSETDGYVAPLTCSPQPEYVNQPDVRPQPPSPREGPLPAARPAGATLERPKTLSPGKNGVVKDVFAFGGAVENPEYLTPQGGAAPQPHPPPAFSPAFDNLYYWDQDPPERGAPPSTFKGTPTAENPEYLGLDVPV
The experiment can be described thus: Western blot of total ErbB2, BT474 cells. Format: cell-based. As to conditions: lapatinib 0.1 μM, pAb 100 μg/ml, trastuzumab 10 μg/ml, 72 hr, FIG. 12A bottom. The method, then: as §3, §4, §5

Experiment [7] concerns phospho-Erk1/2. Description: Western blot of activated phospho-Erk1/2, BT474 cells. It counts as cell-based, human. As to conditions: 72 hr, FIG. 13. The method, then: as §3, §4, §5
For experiment [8], the system named is phospho-Akt. The experiment can be described thus: Western blot of activated phospho-Akt, BT474 cells. Format: cell-based, human. As to conditions: 72 hr, FIG. 13. Here is the method:
as §3, §4, §5

T1 sequence (P04626 23-1255): as above

With `CS(=O)(=O)CCNCc1ccc(-c2ccc3ncnc(Nc4ccc(OCc5cccc(F)c5)c(Cl)c4)c3c2)o1` [lapatinib, N-{3-Chloro-4-[(3-fluorobenzyl)oxy]phenyl}-6-[5-({[2-(methanesulphonyl)ethyl]amino}methyl)-2-furyl]-4-quinazolmamine], the growth inhibition result in experiment [1] and in experiment [2] was “only modest growth inhibition” in each case. The apoptosis result in experiment [3] is on record as “slight increase in apoptosis”. Further, in experiment [4], the survivin protein expression entry is “inhibited”. For the same compound, the “steady-state levels of activated, phosphorylated ErbB2 protein (pErbB2)” value in experiment [5] is recorded as “inhibited”. In addition, the “total ErbB2 protein” value in experiment [6] was “without affecting total ErbB2 protein”. Besides, the “steady state levels of pErk1/2” value in experiment [7] was “reduced”. For the same compound, the “steady state levels of pAkt” value in experiment [8] was “reduced”.
